Laboratory results: publication PMC5429603, “Discovery and characterization of verinurad, a potent and specific inhibitor of URAT1 for the treatment of hyperuricemia and gout” (Scientific Reports, 2017)

Key:
human OAT1 = target: T1, human OAT1 (Homo sapiens, UniProt Q4U2R8); assay: OAT1 activity assay (carboxyfluorescein transport); assay type: cell-based
T1 construct: host or cells: HEK-293T
Method: DNA (10 μg) was mixed with 30 μl of […] Gold (Boca Scientific) in 2 ml OptiMem (Life Technologies). […] The cells were assayed the following day. OAT1-expressing cells were assayed in a buffer containing 20 mM HEPES (from a 1 M solution at pH 7.3; USB Corporation), 130 mM sodium chloride, 4 mM potassium chloride, 1 mM magnesium sulfate, 1 mM calcium chloride, 1 mM sodium phosphate dibasic and 18 mM glucose. […] Cells were then solubilized in 0.1 N sodium hydroxide prior to fluorimetry measurements. Each treatment was measured in triplicate.

human URAT1 h-S27P = target: T2, human URAT1 h-S27P (Homo sapiens, UniProt Q96S37, S27P); assay: URAT1 activity assay, h-S27P; assay type: cell-based
T2 construct: expressed in transfected cells; host or cells: HEK-293T
T2 sequence (Q96S37 whole entry S27P): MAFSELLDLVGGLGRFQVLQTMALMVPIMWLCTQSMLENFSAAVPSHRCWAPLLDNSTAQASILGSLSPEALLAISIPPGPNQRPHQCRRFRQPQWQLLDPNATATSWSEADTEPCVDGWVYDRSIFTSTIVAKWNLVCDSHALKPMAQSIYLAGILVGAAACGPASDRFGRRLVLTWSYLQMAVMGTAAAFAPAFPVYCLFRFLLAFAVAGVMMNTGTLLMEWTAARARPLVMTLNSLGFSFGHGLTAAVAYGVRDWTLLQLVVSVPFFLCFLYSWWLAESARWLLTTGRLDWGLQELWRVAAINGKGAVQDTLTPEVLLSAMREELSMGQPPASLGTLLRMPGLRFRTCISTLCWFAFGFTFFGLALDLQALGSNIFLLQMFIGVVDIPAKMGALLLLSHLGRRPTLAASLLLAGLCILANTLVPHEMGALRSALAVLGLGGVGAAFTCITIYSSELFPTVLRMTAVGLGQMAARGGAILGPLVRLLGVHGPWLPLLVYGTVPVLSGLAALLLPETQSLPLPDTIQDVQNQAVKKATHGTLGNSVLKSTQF
Text: (§1) Human URAT1 (GenBank BC053348.1, Homo sapiens SLC22A12), rat URAT1 (NCBI NM_001034943.1, Rattus norvegicus Slc22a12) and human OAT4 (NCBI NM_018484.2, Homo sapiens SLC22A11) genes were purchased from Origene Technologies, Inc. and subcloned into pCMV6/neo using NotI. Where indicated, controls transfections used pCMV6/neo. Mutants were produced by site-directed mutagenesis using the QuikChange Lightning Multi Site-Directed Mutagenesis Kit (Agilent Technologies). […] Mutagenic primer sequences are provided in ref. [15] and mutagenic primer sequences for previously unreported mutants shown in Supplementary Table 1. All constructs used in this study were untagged. Human OAT1 was purchased from Fisher Scientific (catalog # MHS1010–7508183 in pSPORT6, NCBI NM_153276.2, Homo sapiens SLC22A6).
(§2) HEK-293T cells were maintained in DMEM/high glucose/L-glutamine/HEPES supplemented with 1 mM sodium pyruvate (Life Technologies) and 10% FBS (PAA Laboratories) at 37 °C in 5% CO2. […]
(§3) URAT1 and OAT4 activity assays were performed in assay buffer consisting of 25 mM MES pH 5.5 (from a 1 M MES solution [Sigma] adjusted to pH 5.5 with sodium hydroxide), 125 mM sodium gluconate, 4.8 mM potassium gluconate, 1.2 mM monobasic potassium phosphate, 1.2 mM magnesium sulfate, 1.3 mM calcium gluconate and 5.6 mM glucose. […] Each treatment was measured in triplicate.

human URAT1 [1] = target: T3, human URAT1 (Homo sapiens, UniProt Q96S37); assay: URAT1 activity assay (14C-uric acid transport), human URAT1; assay type: cell-based; set-up: host or cells: HEK-293T
T3 sequence (Q96S37 1-553): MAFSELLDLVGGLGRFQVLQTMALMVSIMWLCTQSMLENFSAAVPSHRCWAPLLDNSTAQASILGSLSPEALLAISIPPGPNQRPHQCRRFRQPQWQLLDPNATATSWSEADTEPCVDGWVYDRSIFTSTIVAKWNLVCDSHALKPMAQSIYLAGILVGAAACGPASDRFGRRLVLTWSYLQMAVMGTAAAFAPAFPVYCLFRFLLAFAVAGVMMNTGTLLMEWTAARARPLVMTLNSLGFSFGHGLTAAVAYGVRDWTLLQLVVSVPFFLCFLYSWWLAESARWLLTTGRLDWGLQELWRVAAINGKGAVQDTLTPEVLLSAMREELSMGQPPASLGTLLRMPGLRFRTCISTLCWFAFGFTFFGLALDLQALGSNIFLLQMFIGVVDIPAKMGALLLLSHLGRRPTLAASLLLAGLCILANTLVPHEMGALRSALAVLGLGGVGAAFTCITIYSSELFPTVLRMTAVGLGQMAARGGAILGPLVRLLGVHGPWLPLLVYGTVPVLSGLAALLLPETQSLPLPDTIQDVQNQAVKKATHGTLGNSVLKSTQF
Method: (§4) HEK-293T cells were maintained in DMEM/high glucose/L-glutamine/HEPES supplemented with 1 mM sodium pyruvate (Life Technologies) and 10% FBS (PAA Laboratories) at 37 °C in 5% CO2. To express URAT1, OAT4 or OAT1, plasmids were reverse transfected into HEK-293T cells. DNA (10 µg) was mixed with 30 µl of DreamFect Gold (Boca Scientific) in 2 ml OptiMem (Life Technologies). After 20 minutes, 18 ml of media containing 2 × 10^7 cells in suspension was added and mixed, and 200 µl per well were plated onto white clear-bottomed poly-D-lysine coated 96-well plates (BD Biosciences). The cells were assayed the following day.
(§5) URAT1 and OAT4 activity assays were performed in assay buffer consisting of 25 mM MES pH 5.5 (from a 1 M MES solution [Sigma] adjusted to pH 5.5 with sodium hydroxide), 125 mM sodium gluconate, 4.8 mM potassium gluconate, 1.2 mM monobasic potassium phosphate, 1.2 mM magnesium sulfate, 1.3 mM calcium gluconate and 5.6 mM glucose. URAT1 inhibitors were serially diluted into assay buffer and added to the cells for 5 minutes prior to addition of substrate. URAT1-expressing cells were incubated with 100 µM ^14C-uric acid for 10 minutes and OAT4-expressing cells were incubated with 20 µM carboxyfluorescein (Life Technologies, Inc.) for 5 minutes. Cells were then washed three times in 25 mM MES pH 5.5/125 mM sodium gluconate, and solubilized in Ultima Gold (Perkin Elmer) prior to liquid scintillation counting. Each treatment was measured in triplicate.

healthy human volunteers = tested on: healthy human volunteers; set-up: method as in PMID 28744099; conditions: humans; cited from earlier work
human URAT1 h-T21A = target: T4, human URAT1 h-T21A (Homo sapiens, UniProt Q96S37, T21A); assay: URAT1 activity assay, h-T21A; assay type: cell-based; conditions: TM1 point mutant, read-out: Verinurad affinity (IC50)
T4 construct: expressed in transfected cells; host or cells: HEK-293T
T4 sequence (Q96S37 whole entry T21A): as the sequence (Q96S37 whole entry S27P) above, with T21A, P27S counted along it
Text: as §1, §2, §3

rat URAT1 = target: T5, rat URAT1 (Rattus norvegicus, UniProt Q3ZAV1); assay: URAT1 activity assay, rat URAT1; assay type: cell-based; conditions: rat URAT1 wild type; 14C-uric acid; read-out: IC50, inhibition of transport activity
T5 construct: host or cells: HEK-293T
T5 sequence (Q3ZAV1 1-553): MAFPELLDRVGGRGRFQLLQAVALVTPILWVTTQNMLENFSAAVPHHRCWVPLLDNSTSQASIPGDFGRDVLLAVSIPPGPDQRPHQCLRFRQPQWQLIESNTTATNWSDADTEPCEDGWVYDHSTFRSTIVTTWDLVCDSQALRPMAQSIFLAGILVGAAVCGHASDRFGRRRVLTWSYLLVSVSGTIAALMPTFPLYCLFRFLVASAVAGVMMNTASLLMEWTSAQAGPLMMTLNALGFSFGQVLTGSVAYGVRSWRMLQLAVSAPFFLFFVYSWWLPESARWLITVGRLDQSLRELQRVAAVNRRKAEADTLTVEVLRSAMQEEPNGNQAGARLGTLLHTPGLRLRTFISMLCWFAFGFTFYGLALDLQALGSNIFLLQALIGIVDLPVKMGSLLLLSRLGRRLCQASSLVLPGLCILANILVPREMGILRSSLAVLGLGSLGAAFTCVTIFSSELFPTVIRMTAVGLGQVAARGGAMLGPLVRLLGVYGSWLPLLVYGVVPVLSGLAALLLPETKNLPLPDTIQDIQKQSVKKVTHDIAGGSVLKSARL
Method: as §4
as §5, with “Cells were then washed three times in 25 mM MES pH 5.5/125 mM sodium gluconate, and solubilized in Ultima Gold (Perkin Elmer) prior to liquid scintillation counting.” left out

human URAT1 [2] = target: T3, human URAT1; assay: URAT1 binding assay with 3H-verinurad, human URAT1 membranes
Method: Membranes were prepared from cells transfected on the previous day with URAT1 expression constructs. Cells (5–10 × 10^8) were harvested in 1 ml ice-cold binding buffer (25 mM HEPES pH 7.3, 125 mM sodium gluconate) containing complete, EDTA-free protease inhibitor cocktail (Sigma). Cells were lysed with 100 strokes in a 2 ml dounce homogenizer using a tight-fitting “B” stem. Lysates were transferred to 1.5 mL Eppendorf tubes and centrifuged at 250 rcf for 5 minutes at 2 °C, and supernatants were transferred to fresh tubes and centrifuged again at 18,000 rcf for 20 minutes at 2 °C. The pellets (membrane fractions) were resuspended in 1 ml of ice-cold binding buffer containing protease inhibitors and frozen at −80 °C. Protein was measured using the Bio-Rad protein assay dye reagent concentrate.
Samples were then rapidly filtered through 25 mm glass fiber/1.2 µM PES 96-well filter plates (Corning FiltrEX 3510), and washed once with 200 µl ice-cold binding buffer. The plates were then subjected to scintillation counting. All samples were assayed in triplicate.
GraphPad Prism software was used for non-linear regression and statistical analyses. […] For kinetic measurements (K m and B max values), the “one site – specific binding” equation was used, after subtracting transport or binding measurements from control transfected cells. Statistical significance was assessed using Student’s unpaired t-tests.

T1 sequence (Q4U2R8 1-550 isoform Q4U2R8-2): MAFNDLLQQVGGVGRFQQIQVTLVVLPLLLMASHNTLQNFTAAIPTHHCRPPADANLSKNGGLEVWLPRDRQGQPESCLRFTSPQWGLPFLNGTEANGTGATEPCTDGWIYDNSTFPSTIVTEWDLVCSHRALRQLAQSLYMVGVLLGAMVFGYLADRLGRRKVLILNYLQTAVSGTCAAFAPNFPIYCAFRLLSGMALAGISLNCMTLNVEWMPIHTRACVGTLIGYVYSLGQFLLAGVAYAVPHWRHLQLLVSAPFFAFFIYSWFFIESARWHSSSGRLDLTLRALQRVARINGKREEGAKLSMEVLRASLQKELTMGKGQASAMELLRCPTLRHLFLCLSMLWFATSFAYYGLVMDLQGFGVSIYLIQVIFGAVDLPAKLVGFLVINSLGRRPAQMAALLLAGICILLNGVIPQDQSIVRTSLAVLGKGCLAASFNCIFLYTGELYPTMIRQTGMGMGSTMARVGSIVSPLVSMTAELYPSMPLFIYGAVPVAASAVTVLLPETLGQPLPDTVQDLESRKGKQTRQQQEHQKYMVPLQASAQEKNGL

## CC(C)(Sc1ccncc1-c1ccc(C#N)c2ccccc12)C(=O)O [Verinurad, 2-((3-(4-cyanonaphthalen-1-yl)pyrindin-4-yl)thio)-2-methylpropanoic acid]
Human OAT1; human OAT1 in HEK-293T, 20 µM carboxyfluorescein, read-out: IC50, inhibition of transport activity
  IC50: 4600 ± 1400 nM
Human OAT1; human OAT1 vs human URAT1
  fold lower affinity compared to URAT1: approximately 200 fold
Human URAT1 h-S27P; h-S27P vs human URAT1
  fold decrease in affinity: 1.6 fold
Human URAT1 h-S27P; h-S27P, TM1 point mutant, read-out: Verinurad affinity (IC50)
  IC50: 39 ± 9 nM
Human URAT1 [1]; URAT1 vs other transporters
  fold potency for URAT1 compared to other transporters: greater than 100 fold
Human URAT1 [1]; human URAT1 wild type in HEK-293T, 100 µM 14C-uric acid, pH 5.5, read-out: IC50, inhibition of transport activity
  IC50: 25 ± 3.6 nM
Human URAT1 [1]; human URAT1 wild type, read-out: IC50, inhibition of transport activity of human URAT1
  IC50: 25 nM
Healthy human volunteers
  dose that significantly lowers sUA levels: ≥ 5 mg
Human URAT1 h-T21A
  IC50: 26 ± 12 nM
Rat URAT1
  IC50: 41000 ± 2700 nM
Human URAT1 [2]
  IC50: 7.8 nM
  Ki: 6.9 nM
Human URAT1 [2]; human URAT1 membranes
  mode of inhibition of 3H-verinurad binding: competitive inhibition
